In patent publication US5691361A, “1,4-dihydropyridine derivatives, a process for their preparation and their use for influencing the blood flow” (priority 1995, dated 1997):

What was measured:
[1] = system: spontaneously hypertensive rats (SHR); test: Antihypertensive activity in spontaneously hypertensive rats (systolic blood pressure, tail plethysmography); assay type: in vivo, spontaneously hypertensive rats (SHR) of Okamoto strain; settings: Rattus norvegicus, single oral dose 20 mg/kg, 2 hours after treatment
Description: The antihypertensive activity of the compounds of the invention is tested in spontaneously hypertensive rats (SHR) of Okamoto strain. Systolic blood pressure is monitored by tail plethysmography. The animals are trained for two weeks for the monitoring process. On the day of the experiment the rats are placed in an oven for two hours at 31°±1° C. and blood pressure is recorded graphically. The measurement recorded is the average of five measurements taken in each case. Only animals with basic values of systolic blood pressure over 170 mm Hg are considered hypertensive. After 24 hours fasting the compound to be tested (20 mg/kg) and/or a carrier (20% PEG 400 in 0.5% aqueous methyl cellulose (10 ml/kg)) is orally administered to the selected hypertensive animals by means of a gastric cannula. The values are expressed in percentage variation 2 hours after treatment.

[2] = system: left stimulated rabbit atrium / rabbit aorta; test: Tissue selectivity: ratio of IC50 in left stimulated isolated rabbit atrium to IC50 in K+-depolarized rabbit aorta; assay type: cell-based; settings: ratio of IC50 in left stimulated rabbit atrium and IC50 in rabbit aorta
Description: (§1) The vasodilatory effects are tested as follows: an isolated aorta of the thorax of white New Zealand rabbits is secured in an organ bath. The contractile activity of the helical throacic aorta strip is recorded after depolarization with Krebs solution without calcium (35 mM, potassium) and addition of external calcium pulses (1.5 mM). The compounds are added in increasing concentrations before calcium is reintroduced.
The electrical stimulation is fixed at 1 Hz. After one hour equilibration the percentage contraction is set at 100%, increased concentrations of the compounds are added to the bath every 15 minutes and the changes in the contractile force are recorded. The IC50 values are calculated by interpolation from the concentration-effect relationship determined in each of the experiments.

[3] = system: rabbit aorta; test: Vasodilatory effect: inhibition of calcium-induced contraction of K+-depolarized isolated rabbit aorta strips; assay type: cell-based, white New Zealand rabbits; settings: Oryctolagus cuniculus
Description: as §1

Row | Compound | change in vivo at 20 mg/kg [1] [%] | Selectivity index (Atrium/Aorta) [2] | IC50 [3] [nM]
1 | COC(=O)C1=C(C)NC(C)=C(C(=O)OCCCN2C(=O)c3ccccc3S2(=O)=O)C1c1ccccc1Cl (stereo not drawn) [Example 34, 4-(2-Chlorophenyl)-2,6-dimethyl-5-methoxycarbonyl-1,4-dihydropyridine-3-carboxylic acid-3-[N-(1,2-benzisothiazolyl-3(2H)one-1,1-dioxide)]-propylester] | 11.1 | 77 | 1.82
2 | CC1=C(C(=O)OCCCN2C(=O)c3ccccc3S2(=O)=O)C(c2cccc([N+](=O)[O-])c2)C(C(=O)OC(C)C)=C(C)N1 (stereo not drawn) [Example 25, 2,6-Dimethyl-5-isopropoxycarbonyl-4-(3-nitrophenyl)-1,4-dihydropyridine-3-carboxylic acid-3-[N-(1,2-benzisothiazolyl-3(2H)one-1,1-dioxide)]-propylester] | -1.01 | 205 | 1.02
3 | CC1=C(C(=O)OCCN2C(=O)c3ccccc3S2(=O)=O)C(c2cccc([N+](=O)[O-])c2)C(C(=O)OC(C)C)=C(C)N1 (stereo not drawn) [Example 3, 2,6-Dimethyl-5-isopropoxycarbonyl-4-(3-nitrophenyl)-1,4-dihydropyridine-3-carboxylic acid-2-[N-(1,2-benzisothiazolyl-3(2H)one-1,1-dioxide)]-ethylester] | 19.7 | 137 | 0.27
4 | CCOC(=O)C1=C(C)NC(C)=C(C(=O)OCCCN2C(=O)c3ccccc3S2(=O)=O)C1c1cccc(Cl)c1Cl (stereo not drawn) [Example 40, 4-(2,3-Dichlorophenyl)-2,6-dimethyl-5-ethoxycarbonyl-1,4-dihydropyridine-3-carboxylic acid-3-[N-(1,2-benzisothiazolyl-3(2H)one-1,1-dioxide)]-propylester] | 35.5 | 200 | 1.77
5 | COC(=O)C1=C(C)NC(C)=C(C(=O)OCCCN2C(=O)c3ccccc3S2(=O)=O)C1c1ccccc1[N+](=O)[O-] (stereo not drawn) [Example 37, 2,6-Dimethyl-5-methoxycarbonyl-4-(2-nitrophenyl)-1,4-dihydropyridine-3-carboxylic acid-3-[N-(1,2-benzisothiazolyl-3(2H)one-1,1-dioxide)]-propylester] | 6.83 | 80 | 1.5
6 | CCOC(=O)C1=C(C)NC(C)=C(C(=O)OCCN2C(=O)c3ccccc3S2(=O)=O)C1c1ccccc1C(F)(F)F (stereo not drawn) [Example 17, 2,6-Dimethyl-5-ethoxycarbonyl-4-(2-trifluoromethylphenyl)-1,4-dihydropyridine-3-carboxylic acid-2-[N-(1,2-benzisothiazolyl-3(2H)one-1,1-dioxide)]-ethylester] | 27.3 | 152 | 0.49
7 | CC1=C(C(=O)OCCN2C(=O)c3ccccc3S2(=O)=O)C(c2cccc([N+](=O)[O-])c2)C(C(=O)OC(C)(C)C)=C(C)N1 (stereo not drawn) [Example 51] | 24.6 | 72 | 1.6
8 | CC1=C(C(=O)OCCN2C(=O)c3ccccc3S2(=O)=O)C(c2cccc(Cl)c2Cl)C(C(=O)OC(C)(C)C)=C(C)N1 (stereo not drawn) [Example 55, 5-Tert.-butoxycarbonyl-4-(2,3-dichlorophenyl)-2,6-dimethyl-1,4-dihydropyridine-3-carboxylic acid-2-[N-(1,2-benzisothiazolyl-3(2H)one-1,1-dioxide)]-ethylester] | 35.8 | 122 | 2.3
9 | COC(=O)C1=C(C)NC(C)=C(C(=O)OCCCN2C(=O)c3ccccc3S2(=O)=O)C1c1cccc(Cl)c1Cl (stereo not drawn) [Example 29, 4-(2,3-Dichlorophenyl)-2,6-dimethyl-5-methoxycarbonyl-1,4-dihydropyridine-3-carboxylic acid-3-[N-(1,2-benzisothiazolyl-3(2H)one-1,1-dioxide)]-propylester] | 35 | 686 | 0.76
10 | CC1=C(C(=O)OCCN2C(=O)c3ccccc3S2(=O)=O)C(c2cccc(Cl)c2Cl)C(C(=O)OC(C)C)=C(C)N1 (stereo not drawn) [Example 16, 4-(2,3-Dichlorophenyl)-2,6-dimethyl-5-isopropoxycarbonyl-1,4-dihydropyridine-3-carboxyic acid-2-[N-(1,2-benzisothiazolyl-3(2H)one-1,1-dioxide)]-ethylester] | 7.45 | 2744 | 0.25
11 | CC1=C(C(=O)OCCCN2C(=O)c3ccccc3S2(=O)=O)C(c2cccc(Cl)c2Cl)C(C(=O)OC(C)C)=C(C)N1 (stereo not drawn) [Example 42, 4-(2,3-Dichlorophenyl)-2,6-dimethyl-5-isopropoxycarbonyl-1,4-dihydropyridine-3-carboxylic acid-3-[N-(1,2-benzisothiazolyl-3(2H)one-1,1-dioxide)]-propylester] | 10.5 | 75 | 2.08
12 | CC1=C(C(=O)OCCN2C(=O)c3ccccc3S2(=O)=O)C(c2ccccc2C(F)(F)F)C(C(=O)OC(C)C)=C(C)N1 (stereo not drawn) [Example 18, 2,6-Dimethyl-5-isopropoxycarbonyl-4-(2-trifluoromethylphenyl)-1,4-dihydropyridine-3-carboxylic acid-2-[N-(1,2-benzisothiazolyl-3(2H)one-1,1-dioxide)]-ethylester] | 37.1 | 103 | 0.98
13 | CC1=C(C(=O)OCCN2C(=O)c3ccccc3S2(=O)=O)C(c2ccccc2[N+](=O)[O-])C(C(=O)OC(C)(C)C)=C(C)N1 (stereo not drawn) [Example 54, 5-Tert.-butoxycarbonyl-2,6-dimethyl-4-(2-nitrophenyl)-1,4-dihydropyridine-3-carboxylic acid-2-[N-(1,2-benzisothiazolyl-3(2H)one-1,1-dioxide)]-ethylester] | 23.4 | 41 | 0.7
14 | COC(=O)C1=C(C)NC(C)=C(C(=O)OC)C1c1ccccc1[N+](=O)[O-] [nifedipine, 2,6-dimethyl-4-(2-nitrophenyl)-1,4-dihydropyridine-3,5-dicarboxylic acid 3,5-dimethylester, reference compound] | 35.4 | 39 | 2.9
15 | COCCOC(=O)C1=C(C)NC(C)=C(C(=O)OCCCN2C(=O)c3ccccc3S2(=O)=O)C1c1ccccc1C(F)(F)F (stereo not drawn) [Example 45, 2,6-Dimethyl-5-(2-methoxyethoxycarbonyl)-4-(2-trifluoromethylphenyl)-1,4-dihydropyridine-3-carboxylic acid-3-[N-(1,2-benzisothiazolyl-3(2H)one-1,1-dioxide)]-propylester] | 11 | 16 | 1.38
16 | CCOC(=O)C1=C(C)NC(C)=C(C(=O)OCCCN2C(=O)c3ccccc3S2(=O)=O)C1c1ccccc1C(F)(F)F (stereo not drawn) [Example 43, 2,6-Dimethyl-5-ethoxycarbonyl-4-(2-trifluoromethylphenyl)-1,4-dihydropyridine-3-carboxylic acid-3-[N-(1,2-benzisothiazolyl-3(2H)one-1,1-dioxide)]-propylester] | 18.6 | 163 | 0.76
